Measured values as given in patent US20170127673A1, “COMPOSITIONS AND METHODS OF USE OF BETA-HYDROXY-BETA-METHYLBUTYRATE (HMB) AS AN ANIMAL FEED ADDITIVE” (Metabolic Technologies, Inc., priority 2015, published 2017).
Marks after values point to notes of the source that are not given here.

Experiments:
[1] = test system: Salmonella enterica subsp. enterica Serovar Enteritidis (ATCC 13076); assay: Overnight enrichment of subsamples to recover damaged Salmonella (presence/absence); format: cell-based; details: for Salmonella growth in enriched samples: Study 1, 0.9 and 1.5%
Protocol: Enriched samples were then spread plated to XLD, incubated at 37° C. for 24 h, and growth of black colonies typical for Salmonella were noted (presence/absence result, not quantitative).
From the coated and inoculated samples, 25 g subsamples were collected after the designated number of storage days. The 25 g subsample was mixed with 225 ml of buffered peptone water (BPW; Becton, Dickinson and Company, Franklin Lakes, N.J.) and stomached for 15 seconds to homogenize. The homogenate was serially diluted using BPW and spread plated onto Xylose Lysine Desoxycholate agar (XLD; Becton, Dickinson and Company, Franklin Lakes, N.J.) in duplicate. All inoculated XLD plates were incubated at 37° C. for 24 hours. After incubation, plates were enumerated by counting black colonies, typical for Salmonella. The number of observed colonies was multiplied by the dilution factor to determine the total count in cfu/g. Representative isolates from day 0 were confirmed as Salmonella through serotyping to ensure the recovered counts represent the inoculated culture. Counts for the positive and negative controls were also recorded. In addition, on the first sample date that counts of zero were recovered, the subsample was enriched overnight to allow damaged Salmonella cells to be recovered. Enriched samples were spread plated to XLD, incubated at 37° C. for 24 hours, and growth of black colonies typical for Salmonella were noted (presence/absence result, not quantitative).
Based on the results from enumeration on day 1, 2, 7 and 14, the subsample was retained and enriched to allow damaged cells to be recovered. Enriched samples were spread plated to XLD.

[2] = test system: Salmonella enterica subsp. enterica Serovar Enteritidis (ATCC 13076); assay: Salmonella enumeration on HMB-coated, inoculated pet food kibbles (Studies 1-3); format: cell-based
[3] = after HMB is fed; cited from earlier work
[4] = healthy young or old adults; cited from earlier work

In the case of “calcium β-hydroxy-β-methylbutyrate [CaHMB]”, the “Salmonella growth in enriched subsamples” value ([1]; Study 3, days 7 and 14 for 0.5, 0.9, 1.5%, day 14 for 0.1 and 0.3%) is reported as “no Salmonella growth”, the “Salmonella levels in coated kibbles” value ([2]; Study 3, 0.1% (w:w) powder coating, Day 0) is reported as 7.19±0.04 log10 CFU/g and the “Salmonella levels in coated kibbles” value ([2]; Study 3, 0.1% (w:w) powder coating, Day 1) is reported as 7.11 ± 0.08 log10 CFU/g. For the same molecule, the “Salmonella levels in coated kibbles” value ([2]; Study 3, 0.1% (w:w) powder coating, Day 2) was 6.84 ± 0.17 log10 CFU/g, the “Salmonella levels in coated kibbles” value ([2]; Study 3, 0.1% (w:w) powder coating, Day 7) was 3.18 ± 0.03^ log10 CFU/g and the “Salmonella levels in coated kibbles” value ([2]; Study 3, 0.1% (w:w) powder coating, Day 14, below limit of detection of 10 CFU/g) was 0 ± 0^b log10 CFU/g. For the same molecule, the “Salmonella levels in coated kibbles” value ([2]; Study 3, 0.3% (w:w) powder coating, Day 0) was 7.17±0.07 log10 CFU/g, the “Salmonella levels in coated kibbles” value ([2]; Study 3, 0.3% (w:w) powder coating, Day 1) was 7.01 ± 0.07 log10 CFU/g and the “Salmonella levels in coated kibbles” value ([2]; Study 3, 0.3% (w:w) powder coating, Day 2) was 6.26 ± 0.03 log10 CFU/g. The “Salmonella levels in coated kibbles” value ([2]; Study 3, 0.3% (w:w) powder coating, Day 7) was 3.17 ± 0.04^ log10 CFU/g, the “Salmonella levels in coated kibbles” value ([2]; Study 3, 0.3% (w:w) powder coating, Day 14, below limit of detection of 10 CFU/g) was 0 ± 0^b log10 CFU/g and the “Salmonella levels in coated kibbles” value ([2]; Study 3, 0.5% (w:w) powder coating, Day 0) was 7.09±0.04 log10 CFU/g. For the same molecule, the “Salmonella levels in coated kibbles” value ([2]; Study 3, 0.5% (w:w) powder coating, Day 1) was 6.15 ± 0.11 log10 CFU/g, the “Salmonella levels in coated kibbles” value ([2]; Study 3, 0.5% (w:w) powder coating, Day 2) was 5.87 ± 0.20 log10 CFU/g and the “Salmonella levels in coated kibbles” value ([2]; Study 3, 0.5% (w:w) powder coating, Day 7, below limit of detection of 10 CFU/g) was 0 ± 0^b log10 CFU/g. For the same molecule, the “Salmonella levels in coated kibbles” value ([2]; Study 3, 0.5% (w:w) powder coating, Day 14, below limit of detection of 10 CFU/g) was 0 ± 0^b log10 CFU/g, the Salmonella enumeration counts ([2]; Study 3, 0.5, 0.9 and 1.5% coated kibbles, day 7) was “below the limit of detection” and the “Salmonella levels in coated kibbles” value ([2]; Study 3, 0.9% (w:w) powder coating, Day 0) was 7.08±0.12 log10 CFU/g. The “Salmonella levels in coated kibbles” value ([2]; Study 3, 0.9% (w:w) powder coating, Day 1) was 6.27 ± 0.06 log10 CFU/g, the “Salmonella levels in coated kibbles” value ([2]; Study 3, 0.9% (w:w) powder coating, Day 2) was 6.03 ± 0.05 log10 CFU/g and the “Salmonella levels in coated kibbles” value ([2]; Study 3, 0.9% (w:w) powder coating, Day 7, below limit of detection of 10 CFU/g) was 0 ± 0^b log10 CFU/g. The “Salmonella levels in coated kibbles” value ([2]; Study 3, 0.9% (w:w) powder coating, Day 14, below limit of detection of 10 CFU/g) was 0 ± 0^b log10 CFU/g, the “Salmonella levels in coated kibbles” value ([2]; Study 3, 1.5% (w:w) powder coating, Day 0) was 7.04±0.13 log10 CFU/g and the “Salmonella levels in coated kibbles” value ([2]; Study 3, 1.5% (w:w) powder coating, Day 1) was 6.24 ± 0.07 log10 CFU/g. The “Salmonella levels in coated kibbles” value ([2]; Study 3, 1.5% (w:w) powder coating, Day 2) was 5.87 ± 0.09 log10 CFU/g, the “Salmonella levels in coated kibbles” value ([2]; Study 3, 1.5% (w:w) powder coating, Day 7, below limit of detection of 10 CFU/g) was 0 ± 0^b log10 CFU/g and the “Salmonella levels in coated kibbles” value ([2]; Study 3, 1.5% (w:w) powder coating, Day 14, below limit of detection of 10 CFU/g) was 0 ± 0^b log10 CFU/g. The “Salmonella enumeration counts (limit of detection)” value ([2]; Study 3, all treated kibbles, day 14) was less than 10 CFU/g and the “Attenuation of Salmonella on kibbles” value ([2]; Study 3, powdered form, lower levels eliminating after 14 days, higher levels during first week) was “very effective”.

In the case of `CC(C)(O)CC(=O)O` [HMB, β-hydroxy-β-methylbutyrate], the “Salmonella growth in enriched samples” value ([1]; day 1 and 2) is listed as “positive”, the “Salmonella growth in enriched samples” value ([1]; day 7 and 14) is listed as “negative” and the “Loss of HMB to urine” value [3] is listed as 20-50%. The Side effects [4] was “no side effects”, the “Salmonella enumeration (limit of detection)” value ([2]; Study 1, both treatments (0.9 and 1.5%), day 1) was less than 100 cfu/g and the “Salmonella enumeration (limit of detection)” value ([2]; Study 1, both treatments (0.9 and 1.5%), day 2, 7 and 14) was less than 10 cfu/g. The “Reduction of Salmonella artificially inoculated to the kibble” value ([2]; Study 1, coating at 0.9 and 1.5%, 14-day test period) was “effective”.

For `CC(C)(O)CC(=O)O` [HMBFA, β-hydroxy-β-methylbutyric acid], the “Salmonella growth in enriched subsamples” value ([1]; Study 2, treatment levels below limit of detection on enumeration days 2, 7 and 14) was “positive”, the “Salmonella levels in coated kibbles” value ([2]; Study 1, 0.9% (w:w) coating, Day 0) was 5.59 ± 0.22 log10 CFU/g and the “Salmonella levels in coated kibbles” value ([2]; Study 1, 0.9% (w:w) coating, Day 1, below limit of detection of 100 CFU/g) was 0.00 ± 0^b log10 CFU/g. The “Salmonella levels in coated kibbles” value ([2]; Study 1, 0.9% (w:w) coating, Day 2, below limit of detection of 10 CFU/g) was 0.00 ± 0^c log10 CFU/g, the “Salmonella levels in coated kibbles” value ([2]; Study 1, 0.9% (w:w) coating, Day 7, below limit of detection of 10 CFU/g) was 0.00 ± 0^c log10 CFU/g and the “Salmonella levels in coated kibbles” value ([2]; Study 1, 0.9% (w:w) coating, Day 14, below limit of detection of 10 CFU/g) was 0.00 ± 0^c log10 CFU/g. The “Time to elimination of Salmonella inoculated onto the kibbles” value ([2]; Study 1, 0.9 and 1.5% (w:w)) was no more than 24 h, the “Salmonella levels in coated kibbles” value ([2]; Study 1, 1.5% (w:w) coating, Day 0) was 4.88 ± 0.19 log10 CFU/g and the “Salmonella levels in coated kibbles” value ([2]; Study 1, 1.5% (w:w) coating, Day 1, below limit of detection of 100 CFU/g) was 0.00 ± 0^b log10 CFU/g. For the same molecule, the “Salmonella levels in coated kibbles” value ([2]; Study 1, 1.5% (w:w) coating, Day 2, below limit of detection of 10 CFU/g) was 0.00 ± 0^c log10 CFU/g, the “Salmonella levels in coated kibbles” value ([2]; Study 1, 1.5% (w:w) coating, Day 7, below limit of detection of 10 CFU/g) was 0.00 ± 0^c log10 CFU/g and the “Salmonella levels in coated kibbles” value ([2]; Study 1, 1.5% (w:w) coating, Day 14, below limit of detection of 10 CFU/g) was 0.00 ± 0^c log10 CFU/g. For the same molecule, the “Salmonella levels in coated kibbles” value ([2]; Study 2, 0.1% (w:w) coating, Day 0) was 5.61±0.19 log10 CFU/g, the “Salmonella levels in coated kibbles” value ([2]; Study 2, 0.1% (w:w) coating, Day 1) was 3.50 ± 0.12 log10 CFU/g and the “Salmonella levels in coated kibbles” value ([2]; Study 2, 0.1% (w:w) coating, Day 2) was 2.62 ± 0.26 log10 CFU/g. The “Salmonella levels in coated kibbles” value ([2]; Study 2, 0.1% (w:w) coating, Day 7) was 0.87 ± 0.47 log10 CFU/g, the “Salmonella levels in coated kibbles” value ([2]; Study 2, 0.1% (w:w) coating, Day 14, below limit of detection of 10 CFU/g) was 0.00 ± 0^b log10 CFU/g and the “Salmonella levels in coated kibbles” value ([2]; Study 2, 0.3% (w:w) coating, Day 0) was 5.62±0.06 log10 CFU/g. For the same molecule, the “Salmonella levels in coated kibbles” value ([2]; Study 2, 0.3% (w:w) coating, Day 1) was 2.85 ± 0.16 log10 CFU/g, the “Salmonella levels in coated kibbles” value ([2]; Study 2, 0.3% (w:w) coating, Day 2) was 1.63 ± 0.32 log10 CFU/g and the “Salmonella levels in coated kibbles” value ([2]; Study 2, 0.3% (w:w) coating, Day 7) was 0.67 ± 0.33 log10 CFU/g. For the same molecule, the “Salmonella levels in coated kibbles” value ([2]; Study 2, 0.3% (w:w) coating, Day 14, below limit of detection of 10 CFU/g) was 0.00 ± 0^b log10 CFU/g, the “Salmonella levels in coated kibbles” value ([2]; Study 2, 0.5% (w:w) coating, Day 0) was 5.60±0.26 log10 CFU/g and the “Salmonella levels in coated kibbles” value ([2]; Study 2, 0.5% (w:w) coating, Day 1) was 2.09 ± 0.28 log10 CFU/g. The “Salmonella levels in coated kibbles” value ([2]; Study 2, 0.5% (w:w) coating, Day 2) was 0.93 ± 0.52 log10 CFU/g, the “Salmonella levels in coated kibbles” value ([2]; Study 2, 0.5% (w:w) coating, Day 7, below limit of detection of 10 CFU/g) was 0.00 ± 0^b log10 CFU/g and the “Salmonella levels in coated kibbles” value ([2]; Study 2, 0.5% (w:w) coating, Day 14, below limit of detection of 10 CFU/g) was 0.00 ± 0^b log10 CFU/g. The “Salmonella enumeration (limit of detection)” value ([2]; Study 2, 0.5% treatment, days 2, 7 and 14) was less than 10 CFU/g, the “Lowest coating level effective in eliminating the Salmonella inoculum” value ([2]; Study 2, by day 14) was “around 0.1 % (w:w)” and the “Salmonella enumeration (limit of detection)” value ([2]; Study 2, day 14 across all treatments) was less than 10 CFU/g.
